Where “and” joins values, the source holds several entries; their conditions need not be identical. Equal entries are not always repeated. Inconclusive results and toxic doses are left out. No stated cut-off is given here; in the data, active means T/C of 150% or more; inactive means T/C below 125%.
Test system: L1210 leukemia ip in BDF1 mice, survival T/C
Assay: NCI In Vivo Anticancer Drug Screen. Data for tumor model L1210 Leukemia (intraperitoneal) in B6D2F1 (BDF1) mice
Settings: endpoint: mean survival time, higher = longer survival
In short: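 Transplantable tumor model; survival measured in treated vs vehicle control mice. Value = treated/control.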

[1] = dose: 100.0 mg/kg/injection, schedule: Q01DX001 (ip), vehicle: other
[2] = dose: 200.0 mg/kg/injection, schedule: Q01DX001 (ip), vehicle: other
[3] = dose: 400.0 mg/kg/injection, schedule: Q01DX001 (ip), vehicle: other
[4] = dose: 100.0 mg/kg/injection, schedule: Q04DX003 (ip), vehicle: saline with Tween-80
[5] = dose: 200.0 mg/kg/injection, schedule: Q04DX003 (ip), vehicle: saline with Tween-80
[6] = dose: 400.0 mg/kg/injection, schedule: Q04DX003 (ip), vehicle: saline with Tween-80
[7] = dose: 100.0 mg/kg/injection, schedule: Q01DX009 (ip), vehicle: saline
[8] = dose: 100.0 mg/kg/injection, schedule: Q01DX001 (ip), vehicle: carboxymethylcellulose (CMC)
[9] = dose: 200.0 mg/kg/injection, schedule: Q01DX001 (ip), vehicle: carboxymethylcellulose (CMC)
[10] = dose: 400.0 mg/kg/injection, schedule: Q01DX001 (ip), vehicle: carboxymethylcellulose (CMC)
[11] = dose: 100.0 mg/kg/injection, schedule: Q04DX003 (ip), vehicle: Klucel (hydroxypropylcellulose) (HPC)
[12] = dose: 200.0 mg/kg/injection, schedule: Q04DX003 (ip), vehicle: Klucel (hydroxypropylcellulose) (HPC)
[13] = dose: 100.0 mg/kg/injection, schedule: Q01DX009 (ip), vehicle: Klucel (hydroxypropylcellulose) (HPC)
[14] = dose: 200.0 mg/kg/injection, schedule: Q01DX009 (ip), vehicle: Klucel (hydroxypropylcellulose) (HPC)
[15] = dose: 400.0 mg/kg/injection, schedule: Q01DX009 (ip), vehicle: Klucel (hydroxypropylcellulose) (HPC)
[16] = dose: 400.0 mg/kg/injection, schedule: Q04DX003 (ip), vehicle: Klucel (hydroxypropylcellulose) (HPC)

Measured: T/C

CCOP(=O)(OCC)c1ccc(N=Cc2cnc3nc(NC(C)=O)[nH]c(=O)c3n2)cc1
inactive: [1] 109 % of control | [2] 112 % of control | [3] 101 % of control

NC(N)=NCCCNCCCN=C(N)N
inactive: dose: 17.5 mg/kg/injection, schedule: Q01DX Z (oral), vehicle: saline 100 % of control | dose: 35.0 mg/kg/injection, schedule: Q01DX Z (oral), vehicle: saline 101 % of control | dose: 70.0 mg/kg/injection, schedule: Q01DX Z (oral), vehicle: saline 114 % of control | dose: 140.0 mg/kg/injection, schedule: Q01DX Z (oral), vehicle: saline 117 % of control

CCOc1ccc(-n2c(O)c(N=Nc3ccc(Br)cc3)c(=O)n(-c3ccc(OC)cc3)c2=S)cc1
inactive: dose: 50.0 mg/kg/injection, schedule: Q01DX001 (ip), vehicle: Klucel (hydroxypropylcellulose) (HPC) 94 % of control | dose: 100.0 mg/kg/injection, schedule: Q01DX001 (ip), vehicle: Klucel (hydroxypropylcellulose) (HPC) 94 % of control | dose: 200.0 mg/kg/injection, schedule: Q01DX001 (ip), vehicle: Klucel (hydroxypropylcellulose) (HPC) 94 % of control

O=C(O)c1ccnc(Cl)c1
inactive: [4] 101 % of control | [5] 102 % of control | [6] 101 % of control

C[CH2][Pb]([CH2]C)([CH2]C)[O]C(=O)CBr
inactive: dose: 0.78 mg/kg/injection, schedule: Q01DX009 (ip), vehicle: Klucel (hydroxypropylcellulose) (HPC) 92 % of control | dose: 1.56 mg/kg/injection, schedule: Q01DX009 (ip), vehicle: Klucel (hydroxypropylcellulose) (HPC) 103 % of control | dose: 3.12 mg/kg/injection, schedule: Q01DX009 (ip), vehicle: Klucel (hydroxypropylcellulose) (HPC) 98 % of control and 92 % of control | dose: 3.12 mg/kg/injection, schedule: Q04DX002 (ip), vehicle: Klucel (hydroxypropylcellulose) (HPC) 93 % of control | dose: 6.25 mg/kg/injection, schedule: Q04DX002 (ip), vehicle: Klucel (hydroxypropylcellulose) (HPC) 90 % of control | dose: 12.5 mg/kg/injection, schedule: Q04DX002 (ip), vehicle: Klucel (hydroxypropylcellulose) (HPC) 98 % of control and 106 % of control

OC1CC(c2ccccc2)C1(c1ccccc1)c1ccccc1 (centres undefined)
inactive: dose: 75.0 mg/kg/injection, schedule: Q01DX001 (ip), vehicle: other 104 % of control | dose: 150.0 mg/kg/injection, schedule: Q01DX001 (ip), vehicle: other 102 % of control | dose: 300.0 mg/kg/injection, schedule: Q01DX001 (ip), vehicle: other 94 % of control

Cc1cc(CO)c(O)c(CO)c1
inactive: [1] 108 % of control | [7] 97 % of control | [2] 100 % of control | dose: 200.0 mg/kg/injection, schedule: Q01DX009 (ip), vehicle: saline 103 % of control | [3] 103 % of control | dose: 400.0 mg/kg/injection, schedule: Q01DX009 (ip), vehicle: saline 103 % of control

C1CC2(C34CCC(CC3)C4)CCC1C2
inactive: dose: 50.0 mg/kg/injection, schedule: Q01DX001 (ip), vehicle: carboxymethylcellulose (CMC) 105 % of control | [8] 96 % of control | [9] 105 % of control | [10] 88 % of control

S=c1cc[nH]c2n[nH]nc12
inactive: dose: 100.0 mg/kg/injection, schedule: Q01DX001 (ip), vehicle: saline with Tween-80 101 % of control | [4] 104 % of control | dose: 200.0 mg/kg/injection, schedule: Q01DX001 (ip), vehicle: saline with Tween-80 101 % of control | [5] 101 % of control | dose: 400.0 mg/kg/injection, schedule: Q01DX001 (ip), vehicle: saline with Tween-80 103 % of control | [6] 98 % of control

ClCC[n+]1csc2ccccc21
inactive: dose: 10.0 mg/kg/injection, schedule: Q01DX Z (ip), vehicle: saline 91 % of control | dose: 30.0 mg/kg/injection, schedule: Q01DX Z (ip), vehicle: saline 94 % of control | dose: 100.0 mg/kg/injection, schedule: Q01DX Z (ip), vehicle: saline 96 % of control | dose: 300.0 mg/kg/injection, schedule: Q01DX Z (ip), vehicle: saline 110 % of control

NC(Cc1ccccc1)C(=O)O (centres undefined)
inactive: dose: 75.0 mg/kg/injection, schedule: Q01DX001 (ip), vehicle: saline with Tween-80 102 % of control | [8] 93 % of control | [11] 102 % of control | dose: 150.0 mg/kg/injection, schedule: Q01DX001 (ip), vehicle: saline with Tween-80 102 % of control | [9] 96 % of control | [12] 86 % of control | dose: 300.0 mg/kg/injection, schedule: Q01DX001 (ip), vehicle: saline with Tween-80 98 % of control | [10] 93 % of control

CN(C)NP(=O)(NN(C)C)N(C)C
inactive: dose: 100.0 mg/kg/injection, schedule: Q04DX003 (ip), vehicle: saline 100 % of control | dose: 200.0 mg/kg/injection, schedule: Q04DX003 (ip), vehicle: saline 100 % of control | dose: 400.0 mg/kg/injection, schedule: Q04DX003 (ip), vehicle: saline 94 % of control

NC(c1ccccc1)C(C(=O)O)C(=O)O (centres undefined)
inactive: dose: 75.0 mg/kg/injection, schedule: Q04DX003 (ip), vehicle: saline 95 % of control | dose: 150.0 mg/kg/injection, schedule: Q04DX003 (ip), vehicle: saline 94 % of control | dose: 300.0 mg/kg/injection, schedule: Q04DX003 (ip), vehicle: saline 95 % of control

Cc1ccc(C(C)(C)[CH2][Sn]([CH2]C(C)(C)c2ccc(C)cc2)([CH2]C(C)(C)c2ccc(C)cc2)[CH2]C(C)(C)c2ccc(C)cc2)cc1
inactive: dose: 50.0 mg/kg/injection, schedule: Q04DX002 (ip), vehicle: saline with Tween-80 92 % of control | dose: 100.0 mg/kg/injection, schedule: Q04DX002 (ip), vehicle: saline with Tween-80 100 % of control | dose: 200.0 mg/kg/injection, schedule: Q04DX002 (ip), vehicle: saline with Tween-80 103 % of control | dose: 400.0 mg/kg/injection, schedule: Q04DX002 (ip), vehicle: saline with Tween-80 92 % of control

O=[Se]1OCc2ccccc2CO1
inactive: dose: 9.5 mg/kg/injection, schedule: Q01DX001 (ip), vehicle: saline with Tween-80 101 % of control | dose: 19.0 mg/kg/injection, schedule: Q01DX001 (ip), vehicle: saline with Tween-80 106 % of control | dose: 38.0 mg/kg/injection, schedule: Q01DX001 (ip), vehicle: saline with Tween-80 113 % of control

Cc1cc2nc(CBr)c(CBr)nc2cc1C
inactive: dose: 3.12 mg/kg/injection, schedule: Q01DX009 (ip), vehicle: acetone 100 % of control | dose: 6.25 mg/kg/injection, schedule: Q01DX009 (ip), vehicle: acetone 94 % of control | dose: 6.25 mg/kg/injection, schedule: Q04DX003 (ip), vehicle: Klucel (hydroxypropylcellulose) (HPC) 95 % of control | dose: 12.5 mg/kg/injection, schedule: Q04DX003 (ip), vehicle: Klucel (hydroxypropylcellulose) (HPC) 101 % of control | dose: 12.5 mg/kg/injection, schedule: Q04DX003 (ip), vehicle: saline with Tween-80 98 % of control | dose: 25.0 mg/kg/injection, schedule: Q04DX003 (ip), vehicle: Klucel (hydroxypropylcellulose) (HPC) 93 % of control

COC(=O)CCCCCCCC(=O)O
inactive: [13] 94 % of control | [14] 98 % of control | [15] 102 % of control

OCC1OC(n2ccc3c2ncn2ccnc32)C(O)C1O (centres undefined)
inactive: dose: 25.0 mg/kg/injection, schedule: Q01DX005 (ip), vehicle: saline 91 % of control | dose: 50.0 mg/kg/injection, schedule: Q01DX005 (ip), vehicle: saline 105 % of control | dose: 50.0 mg/kg/injection, schedule: Q01DX009 (ip), vehicle: saline 102 % of control | dose: 100.0 mg/kg/injection, schedule: Q01DX005 (ip), vehicle: saline 93 % of control | [7] 103 % of control

CN(C)C(=O)Sc1cc(Cl)c(S(=O)(=O)F)cc1Cl
inactive: [13] 97 % of control | [14] 100 % of control | [15] 90 % of control

CCOC(=O)c1c(C)[nH]c(C)c1-c1ccccc1
inactive: [11] 112 % of control | [12] 104 % of control | [16] 105 % of control

O=C(NC1CCCCC1)OC/C=C\c1ccccc1
inactive: [13] 101 % of control | [11] 101 % of control | [14] 98 % of control | [12] 96 % of control | [15] 109 % of control | [16] 102 % of control
